Results as given in ChEMBL document CHEMBL1201862, “PubChem BioAssay data set” (2004).
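Test compounds were applied to cells in 96-well plates for 48 hours at 5 doses. GI50: concentration for 50% inhibition of growth.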 Active and inactive are the calls of the source. No stated cut-off is given here; in the data, active = GI50 up to about 1.1 µM and inactive = higher.

How the values were obtained:
Assay in all cases: NCI anticancer screen, dose series, 48 h
SK-MEL-28 = test system: SK-MEL-28
KM12 = test system: KM12
SNB-75 = test system: SNB-75
SF-268 = test system: SF-268
UO-31 = test system: UO-31
SF-295 = test system: SF-295
M14 = test system: M14
OVCAR-5 = test system: OVCAR-5
HOP-92 = test system: HOP-92
MDA-N = test system: MDA-N
OVCAR-4 = test system: OVCAR-4
A498 = test system: A498
HCT-116 = test system: HCT-116
HOP-62 = test system: HOP-62
T47D = test system: T47D
OVCAR-8 = test system: OVCAR-8
OVCAR-3 = test system: OVCAR-3
HL-60 = test system: HL-60
Hs-578T = test system: Hs-578T

Measured: GI50

Oc1ccc2ccccc2c1NCn1nc(CCCCCCCCc2nn(CNc3c(O)ccc4ccccc34)c(=S)o2)oc1=S
inactive: SK-MEL-28 > 100 µM | KM12 28.9 µM | SNB-75 > 100 µM | SF-268 > 100 µM | UO-31 > 100 µM | SF-295 > 100 µM | M14 44.8 µM | OVCAR-5 > 100 µM | HOP-92 > 100 µM | MDA-N 37.6 µM | OVCAR-4 > 100 µM | A498 > 100 µM | HCT-116 6.49 µM | HOP-62 > 100 µM

CC(=O)c1c(-c2ccc(Cl)cc2)c(C#N)c(=S)n(C2OC(CO)C(O)C(O)C2O)c1C (configuration not stated)
inactive: SK-MEL-28 34.1 µM | KM12 40.4 µM | SNB-75 > 100 µM | SF-268 53.3 µM | T47D 49.3 µM | UO-31 1.44 µM | SF-295 54.6 µM | M14 57.7 µM | OVCAR-5 > 100 µM | HOP-92 13.1 µM | OVCAR-8 > 100 µM | MDA-N 30.8 µM | OVCAR-4 38.5 µM | A498 50.7 µM | OVCAR-3 30.8 µM | HCT-116 47 µM | HOP-62 65 µM | HL-60 26.9 µM

S=C(N1CCN(c2cccc(Cl)c2)CC1)N1CCN(c2cccc(Cl)c2)CC1
inactive: Hs-578T 18.6 µM | SK-MEL-28 42.9 µM | KM12 24.4 µM | SF-268 39.9 µM | T47D 16.9 µM | UO-31 24 µM | SF-295 39.3 µM | M14 53.7 µM | OVCAR-5 44.1 µM | OVCAR-8 > 100 µM | MDA-N > 100 µM | OVCAR-4 28.9 µM | OVCAR-3 47 µM | HCT-116 21.2 µM | HOP-62 36.8 µM

CSc1nc(C)cc(N(C)c2ccccc2)n1
inactive: Hs-578T 32.4 µM | SK-MEL-28 46.8 µM | KM12 1.73 µM | SNB-75 27.1 µM | SF-268 43.8 µM | UO-31 5.33 µM | SF-295 34.7 µM | M14 30.1 µM | OVCAR-5 > 100 µM | OVCAR-8 34.8 µM | MDA-N 24.1 µM | OVCAR-4 > 100 µM | A498 50.1 µM | OVCAR-3 27.3 µM | HCT-116 22.9 µM | HOP-62 45.2 µM | HL-60 32.8 µM

Cc1nnc(N/N=C2/C(=O)Nc3ccccc32)nc1O
inactive: Hs-578T > 100 µM | SK-MEL-28 > 100 µM | KM12 > 100 µM | SF-268 > 100 µM | UO-31 > 100 µM | SF-295 > 100 µM | M14 > 100 µM | OVCAR-5 > 100 µM | HOP-92 > 100 µM | OVCAR-8 > 100 µM | MDA-N > 100 µM | OVCAR-4 > 100 µM | A498 > 100 µM | OVCAR-3 > 100 µM | HCT-116 > 100 µM | HOP-62 > 100 µM | HL-60 > 100 µM

CCN(C(=S)N[C@H](C(=O)N[C@@H](C)C(=O)OC)C(C)C)c1ccccc1
inactive: SK-MEL-28 > 100 µM | KM12 > 100 µM | T47D > 100 µM | UO-31 60.8 µM | SF-295 > 100 µM | M14 53.2 µM | OVCAR-5 > 100 µM | HOP-92 51.4 µM | OVCAR-8 21.8 µM | MDA-N 91.2 µM | OVCAR-4 > 100 µM | OVCAR-3 > 100 µM | HCT-116 70.8 µM | HOP-62 91.6 µM

COc1ccccc1C(=O)c1c(N2CCCCC2)c(=O)c1=O
inactive: SK-MEL-28 > 100 µM | KM12 78.7 µM | SNB-75 > 100 µM | SF-268 > 100 µM | UO-31 > 100 µM | SF-295 > 100 µM | M14 > 100 µM | OVCAR-5 > 100 µM | HOP-92 > 100 µM | OVCAR-8 > 100 µM | MDA-N > 100 µM | OVCAR-4 > 100 µM | A498 > 100 µM | OVCAR-3 > 100 µM | HCT-116 > 100 µM | HOP-62 > 100 µM | HL-60 > 100 µM

CCOP(=O)(OCC)/C(C#N)=C/c1[nH]cnc1C
inactive: Hs-578T > 100 µM | SK-MEL-28 > 100 µM | KM12 > 100 µM | SNB-75 > 100 µM | SF-268 > 100 µM | UO-31 > 100 µM | SF-295 > 100 µM | M14 > 100 µM | OVCAR-5 > 100 µM | HOP-92 > 100 µM | OVCAR-8 > 100 µM | MDA-N > 100 µM | OVCAR-4 > 100 µM | A498 > 100 µM | OVCAR-3 > 100 µM | HCT-116 > 100 µM | HOP-62 > 100 µM | HL-60 > 100 µM

CCCCN1C(=O)N(c2ccc(OCC)cc2)C2N(CCCC)C1C(C)(C)C2(C)C (configuration not stated)
inactive: Hs-578T 18.6 µM | SK-MEL-28 32.1 µM | KM12 34.1 µM | SNB-75 37.3 µM | SF-268 21.9 µM | T47D 22.4 µM | UO-31 27.1 µM | SF-295 47.4 µM | M14 25.1 µM | HOP-92 23.5 µM | OVCAR-8 32.3 µM | MDA-N 22 µM | OVCAR-4 37.8 µM | A498 35.2 µM | OVCAR-3 15.7 µM | HCT-116 31.6 µM | HOP-62 35.9 µM
